Assay results published in ChEMBL document CHEMBL1201862, “PubChem BioAssay data set” (2004).
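In this assay, cells in 96-well plates receive the compound at five concentrations for 48 hours. Endpoints are linearly interpolated between the surrounding concentrations. Abbreviation: GI50, concentration required for 50% inhibition of growth.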 Active and inactive are the calls of the source. Rule as the data show it: active = GI50 up to about 1.1 µM and inactive = higher.

Key:
Experiment in all cases: NCI tumour cell line growth inhibition, 48 h
786-0 = test system: 786-0
A498 = test system: A498
A549 = test system: A549
ACHN = test system: ACHN
BT-549 = test system: BT-549
CAKI-1 = test system: CAKI-1
CCRF-CEM = test system: CCRF-CEM
COLO 205 = test system: COLO 205
DU-145 = test system: DU-145
EKVX = test system: EKVX
HCC 2998 = test system: HCC 2998
HCT-116 = test system: HCT-116
HCT-15 = test system: HCT-15
HL-60 = test system: HL-60
HOP-62 = test system: HOP-62
HOP-92 = test system: HOP-92
HT-29 = test system: HT-29
Hs-578T = test system: Hs-578T
IGROV-1 = test system: IGROV-1
K562 = test system: K562
KM12 = test system: KM12
LOX IMVI = test system: LOX IMVI
M14 = test system: M14
MCF7 = test system: MCF7
MDA-MB-231 = test system: MDA-MB-231
MDA-MB-435 = test system: MDA-MB-435
MDA-N = test system: MDA-N
MOLT-4 = test system: MOLT-4
Malme-3M = test system: Malme-3M
NCI-H226 = test system: NCI-H226
NCI-H23 = test system: NCI-H23
NCI-H460 = test system: NCI-H460
NCI-H522 = test system: NCI-H522
NCI/ADR-RES = test system: NCI/ADR-RES
OVCAR-3 = test system: OVCAR-3
OVCAR-4 = test system: OVCAR-4
OVCAR-5 = test system: OVCAR-5
OVCAR-8 = test system: OVCAR-8
PC-3 = test system: PC-3
RPMI-8226 = test system: RPMI-8226
RXF 393 = test system: RXF 393
SF-268 = test system: SF-268
SF-295 = test system: SF-295
SF-539 = test system: SF-539
SK-MEL-28 = test system: SK-MEL-28
SK-MEL-2 = test system: SK-MEL-2
SK-MEL-5 = test system: SK-MEL-5
SK-OV-3 = test system: SK-OV-3
SN12C = test system: SN12C
SNB-19 = test system: SNB-19
SNB-75 = test system: SNB-75
SR = test system: SR
SW-620 = test system: SW-620
T47D = test system: T47D
TK-10 = test system: TK-10
U-251 = test system: U-251
UACC-257 = test system: UACC-257
UACC-62 = test system: UACC-62
UO-31 = test system: UO-31
DMS-114 = test system: DMS-114
DMS-273 = test system: DMS-273
KM-20L2 = test system: KM-20L2
M19-MEL = test system: M19-MEL
SNB-78 = test system: SNB-78

N#CC1(C#N)C2=C(CCCC2)NC(c2ccc(Br)cc2)C1(C#N)C#N (stereo not given)
GI50 (786-0): 1.79 µM (inactive)
GI50 (A498): 19 µM (inactive)
GI50 (A549): 17.2 µM (inactive)
GI50 (ACHN): 1.77 µM (inactive)
GI50 (BT-549): 13.8 µM (inactive)
GI50 (CAKI-1): 1.75 µM (inactive)
GI50 (CCRF-CEM): 0.226 µM (active)
GI50 (COLO 205): 1.24 µM (inactive)
GI50 (DU-145): 12.5 µM (inactive)
GI50 (EKVX): 12.4 µM (inactive)
GI50 (HCC 2998): 20.5 µM (inactive)
GI50 (HCT-116): 1.84 µM (inactive)
GI50 (HCT-15): 2.42 µM
GI50 (HL-60): 0.286 µM (active)
GI50 (HOP-62): 17.4 µM (inactive)
GI50 (HOP-92): 4.76 µM (inactive)
GI50 (HT-29): 2.55 µM (inactive)
GI50 (Hs-578T): 17.1 µM (inactive)
GI50 (IGROV-1): 2.83 µM (inactive)
GI50 (K562): 0.762 µM (active)
GI50 (KM12): 15.1 µM (inactive)
GI50 (LOX IMVI): 2.11 µM (inactive)
GI50 (M14): 2.63 µM (inactive)
GI50 (MCF7): 5.32 µM (inactive)
GI50 (MDA-MB-231): 11.5 µM (inactive)
GI50 (MDA-MB-435): 3.68 µM (inactive)
GI50 (MDA-N): 4.26 µM (inactive)
GI50 (MOLT-4): 0.384 µM (active)
GI50 (Malme-3M): 1.16 µM (inactive)
GI50 (NCI-H226): 20.2 µM (inactive)
GI50 (NCI-H23): 12.3 µM (inactive)
GI50 (NCI-H460): 24.1 µM (inactive)
GI50 (NCI-H522): 0.927 µM (active)
GI50 (NCI/ADR-RES): 17.2 µM (inactive)
GI50 (OVCAR-3): 6.56 µM (inactive)
GI50 (OVCAR-4): 7.76 µM (inactive)
GI50 (OVCAR-5): 9.95 µM (inactive)
GI50 (OVCAR-8): 2.7 µM (inactive)
GI50 (PC-3): 13.7 µM (inactive)
GI50 (RPMI-8226): 1.91 µM (inactive)
GI50 (RXF 393): 2.24 µM (inactive)
GI50 (SF-268): 7.78 µM (inactive)
GI50 (SF-295): 22.8 µM (inactive)
GI50 (SF-539): 14.2 µM (inactive)
GI50 (SK-MEL-28): 12.6 µM (inactive)
GI50 (SK-MEL-2): 15.6 µM (inactive)
GI50 (SK-MEL-5): 15.5 µM (inactive)
GI50 (SK-OV-3): 22.7 µM (inactive)
GI50 (SN12C): 2.33 µM (inactive)
GI50 (SNB-19): 16.5 µM (inactive)
GI50 (SNB-75): 15.7 µM (inactive)
GI50 (SR): 0.782 µM (active)
GI50 (SW-620): 1.31 µM (inactive)
GI50 (T47D): 2.26 µM (inactive)
GI50 (TK-10): 4.44 µM (inactive)
GI50 (U-251): 13.5 µM (inactive)
GI50 (UACC-257): 4.22 µM (inactive)
GI50 (UACC-62): 16.5 µM (inactive)
GI50 (UO-31): 1.46 µM (inactive)

COc1ccc(-n2/c(=N/C(=S)N(C)C)ss/c2=N\C(=S)N(C)C)cc1
GI50 (786-0): 32.7 µM (inactive)
GI50 (A498): > 100 µM (inactive)
GI50 (A549): > 100 µM (inactive)
GI50 (ACHN): > 100 µM (inactive)
GI50 (CAKI-1): > 100 µM (inactive)
GI50 (COLO 205): 48 µM (inactive)
GI50 (DMS-114): 7.36 µM (inactive)
GI50 (DMS-273): 10.7 µM (inactive)
GI50 (EKVX): > 100 µM (inactive)
GI50 (HCC 2998): > 100 µM (inactive)
GI50 (HCT-116): 13 µM (inactive)
GI50 (HCT-15): > 100 µM
GI50 (HL-60): 17 µM (inactive)
GI50 (HOP-62): 50.7 µM (inactive)
GI50 (HT-29): 2.26 µM (inactive)
GI50 (IGROV-1): 14.2 µM (inactive)
GI50 (K562): 11.6 µM (inactive)
GI50 (KM-20L2): 27.7 µM (inactive)
GI50 (KM12): 95.7 µM (inactive)
GI50 (LOX IMVI): > 100 µM (inactive)
GI50 (M14): 36.9 µM (inactive)
GI50 (M19-MEL): 7.43 µM (inactive)
GI50 (MOLT-4): 79.4 µM (inactive)
GI50 (Malme-3M): > 100 µM (inactive)
GI50 (NCI-H226): > 100 µM (inactive)
GI50 (NCI-H23): 39.4 µM (inactive)
GI50 (NCI-H460): 2.98 µM (inactive)
GI50 (NCI-H522): 2.54 µM (inactive)
GI50 (OVCAR-3): 19.8 µM (inactive)
GI50 (OVCAR-4): 4.7 µM (inactive)
GI50 (OVCAR-5): > 100 µM (inactive)
GI50 (OVCAR-8): 37 µM (inactive)
GI50 (RPMI-8226): 21 µM (inactive)
GI50 (RXF 393): 29.6 µM (inactive)
GI50 (SF-268): 77.1 µM (inactive)
GI50 (SF-295): 68.4 µM (inactive)
GI50 (SF-539): 52.2 µM (inactive)
GI50 (SK-MEL-28): 9.35 µM (inactive)
GI50 (SK-MEL-2): 46.9 µM (inactive)
GI50 (SK-OV-3): 27.8 µM (inactive)
GI50 (SN12C): > 100 µM (inactive)
GI50 (SNB-19): 11.6 µM (inactive)
GI50 (SNB-75): 22.8 µM (inactive)
GI50 (SNB-78): 39.4 µM (inactive)
GI50 (SR): > 100 µM (inactive)
GI50 (SW-620): > 100 µM (inactive)
GI50 (TK-10): > 100 µM (inactive)
GI50 (U-251): 25.6 µM (inactive)
GI50 (UACC-257): > 100 µM (inactive)
GI50 (UACC-62): 4.21 µM (inactive)
GI50 (UO-31): > 100 µM (inactive)
